Reference: the RepoRT retention time repository

test: RP, Waters CORTECS UPLC C18, 100 × 2.1 mm, 1.6 µm, 40 °C, 0.4 mL/min, estimated dead time 0.55 min; A: water + 0.1% formic acid, pH 3; B: acetonitrile + 0.1% formic acid, pH 3; gradient (min/%B) 0/5 1.12/5 6.41/99.5 10.01/99.5; details: stereoisomer not certain

SMILES	LC retention time [min]
CCN(CC)C(=O)C(Cl)=C(C)OP(=O)(OC)OC (mixture of isomers) [Phospamidon (Mix of isomers)]	3.69
CC1(O)CCOC(=O)C1 (racemic) [(±)-Mevalonolactone]	0.963
O=C(O)C(O)Cc1c[nH]c2ccccc12 (racemic) [DL-Indole-3-lactic acid]	3.13
Cn1cnc2c(ncn2C2OC(CO)C(O)C2O)c1=N (stereo not drawn) [1-METHYLADENOSINE]	0.965
O=C(O)c1cccc(O)c1O [2,3-DIHYDROXYBENZOATE]	1.66
O=C(O)c1cccnc1C(=O)O [2,3-Pyridinedicarboxylic acid]	0.763
O=C(O)c1ccc(C(=O)O)o1 [2,5-Furandicarboxylic acid]	1.08
CC(CCC(=O)O)C(=O)O (stereo not drawn) [2-METHYLGLUTARATE]	2.47
O=C(O)c1ccc2ccccc2n1 [2-QUINOLINECARBOXYLATE]	2.4
O=C(O)c1ccc(O)c(O)c1 [3,4-DIHYDROXYBENZOATE]	1.66
N[C@@H](Cc1cc(I)c(Oc2ccc(O)cc2)c(I)c1)C(=O)O [3,5-DIIODO-L-THYRONINE]	3.35
N[C@@H](Cc1cc(I)c(O)c(I)c1)C(=O)O [3,5-DIIODO-L-TYROSINE]	2.69
O=C(O)CCc1ccccc1O [3-(2-HYDROXYPHENYL)PROPANOATE]	5.17
Nc1cc(C(=O)O)ccc1O [3-AMINO-4-HYDROXYBENZOATE]	0.722
Nc1cc(O)cc(C(=O)O)c1 [3-AMINO-5-HYDROXYBENZOATE]	0.722
Nc1c(O)cccc1C(=O)O [3-HYDROXYANTHRANILATE]	0.722
O=Cc1cccc(O)c1 [3-HYDROXYBENZALDEHYDE]	2.13
O=C(O)Cc1c[nH]c2ccccc12 [3-Indoleacetic acid]	3.4
O=C(O)C=Cc1c[nH]c2ccccc12 [3-Indoleacrylic acid]	3.58
CC1C(=O)Nc2ccccc21 (stereo not drawn) [3-METHYL-2-OXINDOLE]	3.39
CC(C)=CC(=O)NCC(=O)O [3-Methylcrotonyl Glycine]	2.29
CC(CC(=O)[O-])CC(=O)OC(CC(=O)O)C[N+](C)(C)C (stereo not drawn) [3-Methylglutarylcarnitine]	2.25

SMILES	LC retention time [min]
N[C@@H](Cc1ccc(O)c([N+](=O)[O-])c1)C(=O)O [3-NITRO-L-TYROSINE]	1.5
C[C@H](CCC(=O)O)[C@H]1CC[C@H]2[C@@H]3CC[C@@H]4CC(=O)CC[C@]4(C)[C@H]3CC[C@]12C [3-Oxo-5β-cholanoic Acid]	6.05
CC(=O)NCCCC(=O)O [4-ACETAMIDOBUTANOATE]	0.817
O=Cc1ccc(O)cc1 [4-HYDROXYBENZALDEHYDE]	2.13
Cc1ncc(CO)c(C(=O)O)c1O [4-PYRIDOXATE]	0.768
Cc1ncc2c(c1O)C(=O)OC2 [4-Pyridoxolactone]	0.792
O=C(O)c1ccnc2ccccc12 [4-QUINOLINECARBOXYLATE]	0.782
CC1OC(n2cnc3c(N)ncnc32)C(O)C1O (stereo not drawn) [5'-DEOXYADENOSINE]	0.931
Cc1cc2nc[nH]c2cc1C [5,6 DIMETHYLBENZIMIDAZOLE]	2.64
CC(C)CCCC(C)C1CCC2C3C(=O)C=C4CC(O)CCC4(C)C3CCC12C (stereo not drawn) [5-Cholesten-3β-ol-7-one]	7.56
O=C(O)Cc1c[nH]c2ccc(O)cc12 [5-HYDROXYINDOLEACETATE]	2.47
CC(CCCC(C)C1CCC2C3C(O)CC4=CC(=O)CCC4(C)C3CCC12C)C(=O)O (stereo not drawn) [7-Hydroxy-3-oxo-Cholest-4-en-26-oic Acid]	5.53
CC(C)CCCC(C)C1CCC2C3=CC=C4CC(O)CCC4(C)C3CCC21C (stereo not drawn) [7-dehydrocholesterol]	7.48
CC(C)CCC[C@@H](C)[C@H]1CC[C@H]2[C@@H]3[C@H](O)CC4=CC(=O)CC[C@]4(C)[C@H]3CC[C@]12C [7α-Hydroxy-4-cholesten-3-one]	7.4
C=CCCCCCCCC(=O)O [9-Decenoic acid]	4.62
C[C@H](CCC(=O)O)[C@H]1CC[C@H]2[C@@H]3[C@H](O)C[C@@H]4C[C@H](O)CC[C@]4(C)[C@H]3CC(=O)[C@]12C [(3ALPHA,5BETA,7ALPHA)-3,7-DIHYDROXY-12-OXOCHOLAN-24-OIC ACID]	4.24
O=C(O)CCCCC(=O)O [ADIPATE]	2.47
Cc1c(C)c2c(c(C)c1O)CCC(C)(CCCC(C)CCCC(C)CCCC(C)C)O2 (stereo not drawn) [ALPHA-TOCOPHEROL]	5.92
O=CC(O)C(O)C(O)CO (stereo not drawn) [ARABINOSE]	0.798
OC1COC(O)C(O)C1O (stereo not drawn) [ARABINOSE]	0.798
CC(=NC#N)N(C)Cc1ccc(Cl)nc1 [Acetamiprid]	3.33
C[N+](C)(C)CC(CC(=O)[O-])OC(=O)CCCCC(=O)[O-].[H+] [Adipoyl-L-carnitine]	1.3

SMILES	LC retention time [min]
CCOC(=O)CCN(Cc1ccccc1)SN(C)C(=O)ON=C(C)SC [Alanycarb]	5.25
O=C(O)CCCCCCCC(O)C(O)CCCCCCO (stereo not drawn) [Aleuritic acid]	3.52
COc1cc(OC)nc(NC(=O)NS(=O)(=O)N(C)S(C)(=O)=O)n1 [Amidosulfuron]	4.16
CNC(=O)Oc1ccc(N(C)C)c(C)c1 [Aminocarb]	1.6
CCCCCC=CCC=CCC=CCC=CCCCC(=O)OC(CC(=O)[O-])C[N+](C)(C)C [Arachidonyl-L-carnitine]	5.35
Clc1ccc(C2(Cn3cncn3)OCCO2)c(Cl)c1 [Azaconazole]	4.32
COP(=O)(OC)SCn1c(=O)oc2cc(Cl)cnc21 [Azamethiphos]	3.91
COC=C(C(=O)OC)c1ccccc1Oc1cc(Oc2ccccc2C#N)ncn1 [Azoxystrobin]	4.91
O=C(O)c1ccccc1 [BENZOATE]	2.13
O=C(O)CCCCC1SCC2NC(=O)NC21 (stereo not drawn) [BIOTIN]	2.7
COC(=O)C(C)N(C(=O)Cc1ccccc1)c1c(C)cccc1C (stereo not drawn) [Benalaxyl]	5.46
CCOC(=O)CCN(SN(C)C(=O)Oc1cccc2c1OC(C)(C)C2)C(C)C [Benfuracarb]	6.01
COc1ccc(-c2ccccc2)cc1NNC(=O)OC(C)C [Bifenazate]	5.09
COc1cc(OC)nc(Oc2cccc(Oc3nc(OC)cc(OC)n3)c2C(=O)[O-])n1.[Na+] [Bispyribac sodium salt]	4.63
CC(C)(C)C(O)C(Oc1ccc(-c2ccccc2)cc1)n1cncn1 (stereo not drawn) [Bitertanol]	5.14
O=C(Nc1ccccc1-c1ccc(Cl)cc1)c1cccnc1Cl [Boscalid]	4.99
CCCCc1c(C)nc(NCC)nc1OS(=O)(=O)N(C)C [Bupirimate]	3.29
CC(C)N1C(=O)N(c2ccccc2)CSC1=NC(C)(C)C [Buprofezin]	5.45
CCCC[n+]1cccc(S(=O)(=O)[O-])c1 [C4-APS]	1.11
CCCCC[n+]1cccc(S(=O)(=O)[O-])c1 [C5-APS]	2.31
CCCCCC[n+]1cccc(S(=O)(=O)[O-])c1 [C6-APS]	2.9
CCCCCCC[n+]1cccc(S(=O)(=O)[O-])c1 [C7-APS]	3.32

SMILES	LC retention time [min]
CCCCCCCC[n+]1cccc(S(=O)(=O)[O-])c1 [C8-APS]	3.67
CCCCCCCCC[n+]1cccc(S(=O)(=O)[O-])c1 [C9-APS]	3.99
CCCCCCCCCC[n+]1cccc(S(=O)(=O)[O-])c1 [C10-APS]	4.29
CCCCCCCCCCC[n+]1cccc(S(=O)(=O)[O-])c1 [C11-APS]	4.59
CCCCCCCCCCCC[n+]1cccc(S(=O)(=O)[O-])c1 [C12-APS]	4.89
CCCCCCCCCCCCC[n+]1cccc(S(=O)(=O)[O-])c1 [C13-APS]	5.19
CCCCCCCCCCCCCC[n+]1cccc(S(=O)(=O)[O-])c1 [C14-APS]	5.49
CCCCCCCCCCCCCCC[n+]1cccc(S(=O)(=O)[O-])c1 [C15-APS]	5.78
CCCCCCCCCCCCCCCC[n+]1cccc(S(=O)(=O)[O-])c1 [C16-APS]	6.07
CCCCCCCCCCCCCCCCC[n+]1cccc(S(=O)(=O)[O-])c1 [C17-APS]	6.34
CCCCCCCCCCCCCCCCCC[n+]1cccc(S(=O)(=O)[O-])c1 [C18-APS]	6.58
CCCCCCCCCCCCCCCCCCC[n+]1cccc(S(=O)(=O)[O-])c1 [C19-APS]	6.81
CCCCCCCCCCCCCCCCCCCC[n+]1cccc(S(=O)(=O)[O-])c1 [C20-APS]	7
Cn1c(=O)c2c(ncn2C)n(C)c1=O [CAFFEINE]	2.52
CC12CCC(=O)C=C1CCC1C2CCC2(C)C1CCC2(O)C(=O)CO (stereo not drawn) [CORTEXOLONE]	4.05
CC(=O)OCC(=O)C1(O)CCC2C3CCC4=CC(=O)CCC4(C)C3C(O)CC21C (stereo not drawn) [CORTISOL 21-ACETATE]	4.25
CC12CCC(=O)C=C1CCC1C2C(O)CC2(C)C1CCC2(O)C(=O)CO (stereo not drawn) [CORTISOL]	3.67
CC12CCC(=O)C=C1CCC1C2C(=O)CC2(C)C1CCC2(O)C(=O)CO (stereo not drawn) [CORTISONE]	3.69
CNC(=O)Oc1cccc2ccccc12 [Carbaryl]	3.14
COC(=O)Nc1nc2ccccc2[nH]1 [Carbendazim]	2.38
CNC(=O)Oc1cccc2c1OC(C)(C)C2 [Carbofuran]	4.09
CCCCN(CCCC)SN(C)C(=O)Oc1cccc2c1OC(C)(C)C2 [Carbosulfan]	6.87
